Experimental data as given in patent US11433053B2, “LSD1 inhibitor and preparation method and application thereof” (CSPC ZHONGQI PHARMACEUTICAL TECHNOLOGY (SHIJIAZHUANG) CO., …, priority 2017, dated 2022).
pIC50: −log10 of the molar value.

How the values were obtained:
[1] = test system: human small cell lung cancer NCI-H1417 cells subcutaneous xenograft tumor; assay: In vivo pharmacodynamic study, NCI-H1417 subcutaneous xenograft tumor CB-17 SCID mouse model; design: species or system CB-17 SCID mice
Method: The purpose of this experiment was to investigate the efficacy of some of the compounds of the present invention in the in vivo xenograft tumor of human small cell lung cancer NCI-H1417 cells in a CB-17 SCID mouse model.
Week age and weight: 6-8 weeks old, weight 18-23 g
Human small cell lung cancer NCI-H1417 cells were cultured in vitro in a single layer cultured in RPMI-1640 medium (Sigma-aldrich, R0883), supplemented with 10% fetal bovine serum and cultured at 37° C. 5% CO2. When the cell saturation is 80%-90%. The cells are harvested, counted, and inoculated.
0.2 mL of 10×10^6 (NCI-H1417 cells were subcutaneously inoculated into the right back of each mouse (PBS:Matrigel=1:1). After 21 days of tumor inoculation, group administration was started when the average volume reached 107 mm^3.
The experimental solvent was the 10% hydroxypropyl-β-cyclodextrin solution. The preparation method was as follows: 100 g of hydroxypropyl-β-cyclodextrin was weighed into a 1000 mL jar, 800 mL of ultrapure water was added, stirred overnight until completely dissolved, and then made up to 1000 mL. The test substance was dissolved in a solvent, and was prepared into a uniform solution of a certain concentration and stored at 4° C.
The experimental indicator is to investigate whether tumor growth is inhibited, delayed or cured. Tumor diameters were measured twice a week using vernier calipers. The tumor volume is calculated as: V=0.5a×b^2, and a and b represent the long and short diameters of the tumor, respectively.
The antitumor effect of the compound was evaluated by TG (%). TGI (%), reflecting the tumor growth inhibition rate. TGI (%) calculation: TGI (%)=[1−(the average tumor volume at the end of a treatment group−the average tumor volume at the beginning of the treatment group)/(the average tumor volume at the end of the treatment of the solvent control group−The average tumor volume at the start of treatment in the solvent control group) was ×100%. Solvent control: Vehicle (10% hydroxypropyl-β-cyclodextrin solution).

H1417 cells = assay: Cell proliferation inhibitory activity on H1417 cells (CellTiter-Glo, 10 days); assay type: cell-based, human; details: for pIC50: 10 days incubation; for Emax: NCI-H1417, H1417 cells, read-out: Maximum inhibition percentage (%)
In short: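 H1417 cells in RPMI 1640 with fetal bovine serum were treated with 10-point 3-fold compound dilutions for 10 days. Viability was read by CellTiter-Glo luminescence. IC50 came from a four-parameter fit of percent inhibition, and maximal inhibition was also categorized.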

[2] = Pharmacokinetic evaluation in C57BL/6 mice after intravenous and oral administration; assay type: in vivo; details: male, mouse, plasma; for Cmax / clearance / half-life / Vd: IV 1 mg/kg; for Cmax: oral 2 mg/kg, route of Cmax not stated, read-out: max concentration Cmax; for clearance: read-out: clearance CL; for half-life: read-out: half-life T1/2 (IV, h) (converted); for Vd: read-out: volumes of distribution Vdss; for bioavailability: PO 2 mg/kg vs IV 1 mg/kg, read-out: bioavailability F (%); for AUC(0-t): PO 2 mg/kg, read-out: the area under the plasma concentration-time curve AUC0-last PO
Method: Experimental purposes: To test the pharmacokinetics of compounds in C57BL/6 mice
C57BL/6 mice (male, 7-9 weeks old, Shanghai Slack)
Test the pharmacokinetics characteristics of rodents after intravenous and oral administration in accordance with standard protocols, and the candidate compound was formulated into a clear solution in the experiment. The mice were administered by intravenous injection and orally once. The intravenous and oral vehicle is a 10% aqueous solution of hydroxypropyl β-cyclodextrin or a physiological saline solution. Six male C57BL/6 mice were employed in this assay, three of them were administered intravenously at a dose of 1 mg/kg, plasma samples were collected at 0 h (before administration) and 0.0833, 0.25, 0.5, 1, 2, 4, 7, 24 h after administration. Another three mice were administered by oral gavage at a dose of 2 mg/kg, plasma samples were collected at 0 h (before administration) and 0.5, 1, 2, 3, 4, 6, 24 h after administration. Collect whole blood samples within 24 hours, centrifuge at 3000 g for 15 minutes, separate the supernatant to obtain a plasma sample, 4 times volume of the internal standard acetonitrile solution was added to precipitate the protein. Centrifuge the supernatant and add an equal volume of water and centrifuge to take the supernatant. LC-MS/MS was used to quantitatively analyze plasma concentrations and calculate pharmacokinetic parameters such as max concentration (Cmax), clearance (CL), half-life (T1/2), volumes of distribution (Vdss), the area under the plasma concentration-time curve (AUC0-last), bioavailability (F), etc.

human LSD1 = human LSD1 (Homo sapiens (Human), UniProt O60341); assay: Evaluation of enzyme activity: LSD1 fluorescence coupling enzyme assay (HRP/Amplex Red); assay type: biochemical; details: human LSD1, histone H3(1-21)K4me2 peptide 10 μM, 30 min pre-incubation
In short: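 Human LSD1 preincubated 30 min with compound, then reacted with H3(1-21)K4me2 peptide (10 μM). FAD-dependent H2O2 detected via HRP/Amplex Red fluorescence (Ex/Em 535/590). Ten-dose, 3-fold dilutions in duplicate from 10 μM gave IC50s, binned into activity classes.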

hERG potassium channel = hERG potassium channel (Homo sapiens (Human), UniProt Q12809); assay: Assay on inhibiting hERG potassium channel (automatic patch clamp, CHO-hERG cells); assay type: cell-based; details: Qpatch, max test concentration 40 μM
Method: Experimental purpose: Using automatic patch clamp method to detect the effect of the sample to be tested on hERG potassium channel.
4.1.1 CHO-hERG cells were cultured in 175 cm^2 flasks. When the cell density was increased to 60-80%, the culture solution was removed and the resultant was washed with 7 mL PBS (Phosphate Buffered Saline phosphate buffer), then 3 mL of digestive juice was added to digest.
4.1.2 After the digestion finished, 7 mL culture solution was added to neutralize. Then centrifuge, aspirate the supernatant, and then resuspend by adding 5 mL culture solution to ensure a cell density of 2-5×10^6/mL.
Single cell high impedance sealing and whole cell pattern formation were all done automatically by the Qpatch instrument. After the whole-cell recording mode was obtained, the cells were clamped at −80 mV. 50-Millisecond−50 mV preamplifier was applied prior to a 5 second+40 mV depolarization stimulus. Then the voltage was repolarized to −50 mV for 5 seconds and back to −80 mV. This voltage stimulation was applied every 15 seconds, and the extracellular fluid was recorded over 5 minutes after 2 minutes' record, and then the administration process was started. The compound concentration was started from the lowest test concentration, and each test concentration was given for 2.5 minutes. Test at least 3 cells (n≥3) for each concentration.
4.4.1 Dilute 20 mM mother liquor of the compound with extracellular fluid 5 μL of 20 mM mother liquor of the compound was added to 2495 μL extracellular fluid, and the mixture was 500-fold diluted to 40 μM. Then 0.2% DMSO in extracellular fluid was 3-fold diluted sequentially to obtain the final concentration to be tested.
4.4.2 The max test concentration was 40 μM, 6 concentrations were 40, 13.33, 4.44, 1.48, 0.49, and 0.16 μM respectively.
Experimental data was analyzed by XLFit software.

[3] = 1 mg/kg, ip, BIW, day 28 after administration
[4] = 1 mg/kg, ip, BIW, day 34 after administration
[5] = Homo sapiens, NCI-H1417, 240 h, H1417 cells
[6] = Homo sapiens, highest percentage inhibition of cell viability
[7] = 5 mg/kg, PO, QD, day 34 after administration
[8] = 1.5 mg/kg, PO, QD, day 27 after administration
[9] = 2.5 mg/kg, PO, BID, day 34 after administration

Sequence of hERG potassium channel (Q12809 whole entry): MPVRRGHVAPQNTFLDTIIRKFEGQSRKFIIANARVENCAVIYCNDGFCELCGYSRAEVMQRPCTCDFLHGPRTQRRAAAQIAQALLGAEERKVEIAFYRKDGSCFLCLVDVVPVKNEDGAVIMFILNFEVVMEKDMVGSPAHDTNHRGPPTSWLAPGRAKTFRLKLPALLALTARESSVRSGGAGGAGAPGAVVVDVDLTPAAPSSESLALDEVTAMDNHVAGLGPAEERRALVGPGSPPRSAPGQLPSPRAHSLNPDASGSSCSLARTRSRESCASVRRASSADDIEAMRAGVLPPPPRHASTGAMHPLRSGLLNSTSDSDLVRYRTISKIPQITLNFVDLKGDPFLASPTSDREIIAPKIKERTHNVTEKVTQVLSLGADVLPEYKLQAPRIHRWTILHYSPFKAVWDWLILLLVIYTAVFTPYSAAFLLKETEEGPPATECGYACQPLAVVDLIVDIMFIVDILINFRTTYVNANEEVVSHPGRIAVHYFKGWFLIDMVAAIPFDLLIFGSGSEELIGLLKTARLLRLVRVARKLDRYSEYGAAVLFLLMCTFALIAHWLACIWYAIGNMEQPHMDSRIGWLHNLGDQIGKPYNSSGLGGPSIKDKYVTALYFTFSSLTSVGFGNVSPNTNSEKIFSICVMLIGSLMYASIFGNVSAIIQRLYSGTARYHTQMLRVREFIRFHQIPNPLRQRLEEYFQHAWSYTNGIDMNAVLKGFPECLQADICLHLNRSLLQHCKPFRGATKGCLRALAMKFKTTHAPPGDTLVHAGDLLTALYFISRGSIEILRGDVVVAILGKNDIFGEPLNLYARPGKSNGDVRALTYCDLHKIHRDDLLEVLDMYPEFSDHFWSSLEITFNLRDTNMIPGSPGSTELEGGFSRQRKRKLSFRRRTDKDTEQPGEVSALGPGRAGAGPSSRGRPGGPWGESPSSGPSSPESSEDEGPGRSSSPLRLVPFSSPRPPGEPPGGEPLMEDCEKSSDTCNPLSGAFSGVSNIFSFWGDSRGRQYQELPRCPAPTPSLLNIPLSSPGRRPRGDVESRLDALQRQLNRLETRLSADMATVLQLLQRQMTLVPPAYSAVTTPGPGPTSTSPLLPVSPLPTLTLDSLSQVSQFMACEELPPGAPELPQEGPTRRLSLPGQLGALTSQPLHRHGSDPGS

Row | pIC50 (H1417 cells; [5]) | Cmax [2] [ng/mL] | clearance [2] [mL/min/kg] | half-life [2] [h] | Vd [2] [L/kg] | bioavailability [2] [%] | AUC(0-t) [2] [µM·h] | pIC50 (human LSD1) | SMILES | Emax (H1417 cells; [6]) [%] | further results
1 | – | – | – | – | – | – | – | – | N.N.[Cl][Pt][Cl] [Cisplatin] | – | TGI (%) [1, 3]: 90%; Tumor volume (mm^3) (Day 28) [1, 3]: 150 ± 9 mm^3; TGI (%) [1, 4]: 61.2%; Tumor volume (mm^3) (Day 34) [1, 4]: 328 ± 37 mm^3
2 | 6.30 to 7.00 | 1290 | 21.9 | 1.3 | 1.9 | 44 | 1.88 | ≥ 7.30 | N#Cc1ccc(-c2nc(C3(CN[C@H]4CC4c4ccccc4)CC3)no2)cc1 (some centres unmarked) [Example 64] | 90 to 100 | –
3 | 6.30 to 7.00 | 2070 | 10.6 | 4.2 | 3 | 49 | 3.38 | ≥ 7.30 | Clc1ccc(-c2nc(C3(CN[C@H]4CC4c4ccccc4)CC3)no2)cc1 (some centres unmarked) [Example 65] | 90 to 100 | –
4 | 6.00 to 6.30 | 2140 | 13.1 | 1.5 | 1.4 | 57 | 3.51 | ≥ 7.30 | FC(F)(F)c1ccc(-c2nc(C3(CN[C@H]4CC4c4ccccc4)CC3)no2)cn1 (some centres unmarked) [Example 66] | 90 to 100 | –
5 | 6.00 to 6.30 | – | – | – | – | – | – | ≥ 7.30 | N[C@H]1CC[C@H](c2nc(C3(CN[C@H]4CC4c4ccccc4)CC3)no2)CC1 (some centres unmarked) [Example 142] | 70 to 90 | TGI (%) [1, 7]: 94.9%; Tumor volume (mm^3) (Day 34) [1, 7]: 136 ± 21 mm^3
6 | – | – | – | – | – | – | – | 7.00 to 7.30 | N[C@H]1CC[C@H](c2nc(C3(CN[C@H]4C[C@@H]4c4ccccc4)CC3)no2)CC1 [Example 143] | – | TGI (%) [1, 7]: 93.3%; Tumor volume (mm^3) (Day 34) [1, 7]: 145 ± 29 mm^3; pIC50 (H1417 cells; H1417 cells): 6.00 to 6.30; Maximum inhibition percentage (%) (H1417 cells; H1417 cells, highest percentage inhibition of cell viability): C (70%>C≥50%)
7 | 6.00 to 6.30 | – | – | – | – | – | – | ≥ 7.30 | N[C@H]1C[C@H](c2nc(C3(CN[C@@H]4C[C@H]4c4ccccc4)CC3)no2)C1 [Example 146] | 90 to 100 | pIC50 (hERG potassium channel): < 4.40
8 | 6.30 to 7.00 | – | – | – | – | – | – | ≥ 7.30 | NC1CC2(C1)CC(c1nc(C3(CN[C@@H]4C[C@H]4c4ccccc4)CC3)no1)C2 (some centres unmarked) [Example 151] | 90 to 100 | TGI (%) [1, 8]: 66.3%; Tumor volume (mm^3) (Day 27) [1, 8]: 250 ± 50 mm^3
9 | 6.30 to 7.00 | – | – | – | – | – | – | ≥ 7.30 | NC12CCC(c3nc(C4(CN[C@@H]5C[C@H]5c5ccccc5)CC4)no3)(CC1)CC2 [Example 155] | 90 to 100 | TGI (%) [1, 8]: 78.7%; Tumor volume (mm^3) (Day 27) [1, 8]: 200 ± 15 mm^3; pIC50 (hERG potassium channel): < 4.40
10 | – | 5090 | 11.6 | 1.4 | 0.4 | 48.1 | 3.51 | 6.30 to 7.00 | O=C(O)[C@H]1CC[C@H](c2nc(C3(CN[C@@H]4C[C@H]4c4ccccc4)CC3)no2)CC1 [Example 167] | – | TGI (%) [1, 9]: 81.4%; Tumor volume (mm^3) (Day 34) [1, 9]: 213 ± 37 mm^3; TGI (%) [1, 7]: 78.2%; Tumor volume (mm^3) (Day 34) [1, 7]: 231 ± 28 mm^3
11 | 6.00 to 6.30 | 763 | 43.4 | 1 | 0.5 | 20.6 | 0.329 | – | O=C(O)c1ccc(CN2CCC(c3nc(C4(CN[C@@H]5CC5c5ccccc5)CC4)no3)CC2)cc1 (some centres unmarked) [Example 169] | 50 to 70 | –
12 | 6.00 to 6.30 | 3210 | 9.9 | 1.6 | 0.5 | 51.5 | 3.86 | – | O=C(O)C12CCC(c3nc(C4(CN[C@H]5CC5c5ccccc5)CC4)no3)(CC1)CC2 (some centres unmarked) [Example 177] | 50 to 70 | –
13 | 6.00 to 6.30 | 815 | 37.7 | 2.7 | 2.6 | 40.5 | 1.13 | ≥ 7.30 | O=C(O)[C@@H]1CCCN1CC1(CN[C@H]2CC2c2ccccc2)CC1 (some centres unmarked) [Example 210] | 50 to 70 | –
14 | – | 58.5 | 112 | 2.97 | 21.7 | 35.1 | 0.273 | – | CC1(c2nc(C3(CN[C@@H]4C[C@H]4c4ccccc4)CC3)no2)CCC(N)CC1 (some centres unmarked) [Example 224] | – | –
15 | ≥ 7.00 | 497 | 62.4 | 0.34 | 0.99 | 28 | 0.37 | 6.30 to 7.00 | O=C(O)C1(CN2CCC(c3nc(C4(CN[C@@H]5C[C@H]5c5ccccc5)CC4)no3)CC2)CCC1 [Example 235] | 70 to 90 | –
16 | ≥ 7.00 | 179 | 72.1 | 2 | 10.3 | 57.5 | 0.712 | ≥ 7.30 | N[C@H]1CC[C@H](c2noc(C3(CN[C@@H]4C[C@H]4c4ccccc4)CC3)n2)CC1 [Example 242] | 90 to 100 | –
17 | 6.00 to 6.30 | – | – | – | – | – | – | ≥ 7.30 | c1ccc([C@@H]2C[C@H]2NCC2(c3noc(N4CCNCC4)n3)CC2)cc1 [Example 246] | 90 to 100 | –
18 | 6.00 to 6.30 | – | – | – | – | – | – | ≥ 7.30 | CN1CCN(c2nc(C3(CN[C@@H]4C[C@H]4c4ccccc4)CC3)no2)CC1 [Example 247] | 90 to 100 | –
